Read-outs that look alike come from different tables or passages of the source. Residues, ends and D or L forms follow the SMILES beside them.
Experiments:
HIF-1α (Trx-1α, 1α PASB) [1] = target: T1, HIF-1α (Trx-1α, 1α PASB) (Homo sapiens, UniProt Q16665); assay: Thermal shift assay, HIF-1α; type: binding; conditions: 1 mM compound
T1 construct: 238-349; made in house
Method: (§1) The binding of the compounds to their targets was assessed by measuring changes in the melting temperature of their target proteins HIF-1α and HIF-2α (known as a thermal shift assay) and by microscale thermophoresis (MST). The data for the thermal shift assay is summarized in FIG. 1, while the binding constants (Kd) derived from MST is shown in FIG. 3. Compounds that are effective inhibitors decrease the melting temperatures of the proteins. […] The compounds may bind to HIF 1α/2α or 1β in order to disrupt the dimerization, and PASB may be the responsible domain.
(§2) Thermal shift data of thioredoxin-tagged longer constructs and PASB domains with the identified polypeptides are shown in FIG. 1. Compounds that are effective inhibitors decrease the melting temperatures of the proteins.
(§3) Thermal denaturation of HIF proteins was performed in 20 μL reactions in triplicate using a Bio-Rad CFX Connect Real-Time System. Proteins were used at either 5 μM (Trx-1α, Trx-2α and GST-1β) or 15 μM (His-tagged PASB domains) in HIF assay buffer, with 10 mM DTT and SYPRO orange dye (Life Technologies) at a final concentration of 8× (relative to 5000× stock), and supplemented with either DMSO or compound dissolved in DMSO at the stated concentrations. The reaction plate was assembled on ice, then transferred to the pre-chilled thermal cycler, held at 10° C. for 5 min (heated lid, 105° C.), then the temperature ramped to 95° C. Fluorescence was recorded at 0.5° C. increments, holding for 5 sec at each temperature. Data were plotted using GraphPad Prism 6, and melting temperatures calculated using the first derivative method in which the peak (i.e. the steepest transition between data points) represents the point at which 50% of the protein sample is denatured. Errors are quoted as the inherent error associated with the first derivative of the data, i.e. ±0.25° C. for Tm values and ±0.5° C. for ΔTm values.

HIF-1α (Trx-1α, 1α PASB) [2] = assay: Thermal shift assay, HIF-1α; type: binding; conditions: effective inhibitors decrease the melting temperature
Method: as §1, §2, §3

HIF-2α (Trx-2α, 2α PASB) [3] = target: T2, HIF-2α (Trx-2α, 2α PASB) (Homo sapiens, UniProt Q99814); assay: Thermal shift assay, HIF-2α; type: binding; conditions: 1 mM compound
T2 construct: 240-350; made in house
Method: as §1, §2, §3

HIF-2α (Trx-2α, 2α PASB) [4] = assay: Thermal shift assay, HIF-2α; type: binding; conditions: effective inhibitors decrease the melting temperature
Method: as §1, §2, §3

HIF-1β (GST-1β, 1β PASB) [5] = target: T3, HIF-1β (GST-1β, 1β PASB) (Homo sapiens, UniProt P27540); assay: Thermal shift assay, HIF-1β (negative control); type: binding; conditions: for activity against HIF-1β in thermal shift assay: negative control protein
T3 construct: 356-474; made in house
Method: as §1, §2, §3

HIF-1β (GST-1β, 1β PASB) [6] = assay: Thermal shift assay, HIF-1β (negative control); type: binding; conditions: 1 mM compound; GST-1β 5 μM
Method: as §1, §2, §3

MCF-7 cells = assay: Cell permeability and localisation by fluorescence microscopy; type: cell-based; conditions: 24 hr
Method: FIGS. 10A-D and 10A′-D′ show cell permeability tested using fluorescently labeled-CRVIIF (SEQ ID NO 4) in MCF-7 cells.
For initial compound permeability experiments, 1.5 mL MCF-7 cells were plated on 3 cm petri dishes (200,000 cells/plate) and grown at 37° C. After 24 hr, cells were incubated with fresh media containing the stated concentrations of fluor-CRVIIF (SEQ ID NO 4) (0.5% DMSO) or 66 μM CP-61 control compound (0.66% DMSO) for a further 24 hr. Cells were washed twice with PBS and imaged live in plates. For co-localisation experiments, an 8-well Lab-Tek Chamber Slide (Nunc) was treated with collagen prior to plating 25,000 MCF-7 cells/well. After 24 hr, cells were dosed with 300 μL fresh media containing the stated concentrations of fluor-CRVIIF (SEQ ID NO 4) (0.5% DMSO) and/or 5 μg/mL FM 4-64FX Membrane Stain (Life Technologies) and incubated for a further 24 hr. Cells were washed with 2×300 μL PBS, fixed with 150 μL 10% formalin in PBS for 5-10 min, then washed again with PBS. Growth chambers were removed and nuclear staining was achieved using Vectashield Mounting Medium with DAPI (Vector Laboratories) prior to sealing the slide with a coverslip. Cells were imaged using a fluorescent microscope.

[7] = His-tagged PASB domain 15 μM, read-out: ΔTm 1α PASB
[8] = Trx-1α 5 μM, read-out: ΔTm Trx-1α
[9] = His-tagged PASB domain 15 μM, read-out: ΔTm 2α PASB
[10] = Trx-2α 5 μM, read-out: ΔTm Trx-2α
[11] = 1 mM compound, His-tagged PASB domain 15 μM

T3 sequence (P27540 356-474): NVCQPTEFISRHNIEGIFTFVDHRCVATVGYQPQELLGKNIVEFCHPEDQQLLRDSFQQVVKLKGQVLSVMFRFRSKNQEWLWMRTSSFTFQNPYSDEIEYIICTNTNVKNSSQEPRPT

Row | Compound | ΔTm at 1000 µM (HIF-1α (Trx-1α, 1α PASB) [1]; [7]) | ΔTm at 1000 µM (HIF-1α (Trx-1α, 1α PASB) [1]; [8]) | activity against HIF-1α in thermal shift assay (HIF-1α (Trx-1α, 1α PASB) [2]) | ΔTm at 1000 µM (HIF-2α (Trx-2α, 2α PASB) [3]; [9]) | ΔTm at 1000 µM (HIF-2α (Trx-2α, 2α PASB) [3]; [10]) | activity against HIF-2α in thermal shift assay (HIF-2α (Trx-2α, 2α PASB) [4]) | ΔTm at 1000 µM (HIF-1β (GST-1β, 1β PASB) [5]; [11]) | activity against HIF-1β in thermal shift assay (HIF-1β (GST-1β, 1β PASB) [5]) | ΔTm GST-1β (HIF-1β (GST-1β, 1β PASB) [6]) | ΔTm 1α PASB (HIF-1α (Trx-1α, 1α PASB) [1]; His-tagged PASB domain 15 μM) | ΔTm Trx-1α (HIF-1α (Trx-1α, 1α PASB) [1]; Trx-1α 5 μM) | ΔTm 2α PASB (HIF-2α (Trx-2α, 2α PASB) [3]; His-tagged PASB domain 15 μM) | ΔTm Trx-2α (HIF-2α (Trx-2α, 2α PASB) [3]; Trx-2α 5 μM) | ΔTm 1β PASB (HIF-1β (GST-1β, 1β PASB) [5]; [11]) | cell permeability (MCF-7 cells)
1 | CC[C@H](C)[C@@H]1NC(=O)[C@H](C(C)C)NC(=O)[C@H](CCCNC(=N)N)NC(=O)[C@H](CS)NC(=O)[C@H](Cc2ccccc2)NC(=O)[C@H]([C@@H](C)CC)NC1=O [CRVIIF, cyclo-CRVIIF] (cyclo(CRVIIF); ring closure inferred) | -1.5 °C | -1 °C | show activity | -2.5 °C | -2 °C | show activity | -0.5 °C | not against HIF-1β | −0.5 °C |  |  |  |  |  | 
2 | CC[C@H](C)[C@@H]1NC(=O)[C@H](CC(C)C)NC(=O)[C@H](CC(C)C)NC(=O)[C@H](CCCNC(=N)N)NC(=O)[C@H](CS)NC(=O)[C@H](Cc2ccccc2)NC1=O [CRLLIF, cyclo-CRLLIF] (cyclo(CRLLIF); ring closure inferred) | -2 °C | 0.5 °C | show activity | -4 °C | -4 °C | show activity | -1 °C | not against HIF-1β |  |  |  |  |  |  | 
3 | CC[C@H](C)[C@@H]1NC(=O)[C@H](CC(C)C)NC(=O)[C@H](CCCCN)NC(=O)[C@H](CS)NC(=O)[C@H](Cc2ccccc2)NC(=O)[C@H]([C@@H](C)CC)NC1=O [CKLIIF] (cyclo(CKLIIF); ring closure inferred) | -1 °C | -1.5 °C | show activity | -2.5 °C | -2.5 °C | show activity | -0.5 °C | not against HIF-1β |  |  |  |  |  |  | 
4 | SGWEMIQRR (cyclic; listed as Homo sapiens) |  |  | only active against HIF-1α |  |  |  |  |  |  | −0.5 °C | −2.5 °C | −2.5 °C | −2 °C | −0.5 °C | 
5 | fluor-CRVIIF: fluorescently labelled cyclo-CRVIIF; FITC-maleimide bound to the cysteine (cyclo(C(FITC‑maleimide)RVIIF); listed as Homo sapiens) |  |  |  |  |  |  |  |  |  |  |  |  |  |  | appears to cross cell membrane
